Results as given in article PMC4335020, “Single Oral Dose Pharmacokinetics of Decursin and Decursinol Angelate in Healthy Adult Men and Women” (PLoS ONE, 2015).

Tests used:
[1] = system: murine colon carcinoma CT-26 cells; design: method as in PMID 21170925; conditions: daily oral 10 mg/kg for 14 days, 30 minutes prior to CT-26 injection through tail vein; cited from earlier work
[2] = design: method as in ref (9) of IRB protocol; conditions: ref (9) of IRB protocol; cited from earlier work
[3] = Stability of D and DA in fresh human whole blood and plasma; assay type: in vitro ADME; conditions: 37°C for 1 h, no detectable generation of DOH and other metabolites (data not shown)
Protocol: To rule out possible artifacts of blood collection, processing and blood-borne esterases, we tested the stability of D and DA in freshly obtained human whole blood and plasma. There was no loss of D and DA in plasma and whole blood after incubation at 37°C for 1 h, with no detectable generation of DOH and other metabolites (data not shown).

[4] = design: method as in PMID 24026903; conditions: in vitro; cited from earlier work
[5] = design: method as in ref 23 = [23]; 23 Zhang J, Li L, Tang S, Zhang Y, Markiewski M, et al. (2013) Subchronic Toxicological Evaluation of Ethanol Extract of Medicinal Herb Angelica gigas Nakai and its Pyranocoumarin Tissue Distribution; conditions: rodents; cited from earlier work
[6] = system: human umbilical vein endothelial (HUVEC) cells; design: method as in PMID 19307054; conditions: 1 μmol/L; cited from earlier work
[7] = system: primary cultures of rat cortical cells; design: method as in PMID 17637179; conditions: as low as 0.1 μmol/L; cited from earlier work
[8] = system: cultured prostate and breast cancer cells; design: method as in PMID 15705905, PMID 17363485, PMID 17986353; conditions: up to 100 μM; cited from earlier work

SMILES | formation of tumor nodules in the lungs and lung weight [1] | rate of metabolism by human vs mouse and rat liver microsomes [2] | loss after incubation in plasma and whole blood [3] | rate of metabolism by human vs mouse and rat liver S9 fraction [4] | tissue/plasma ratios [5] | VEGF-induced proliferation and capillary-tube formation [6] | protective effect on glutamate-injured cells [7] | anti-proliferative effect [8]
CC(C)=CC(=O)O[C@H]1Cc2cc3ccc(=O)oc3cc2OC1(C)C [D, decursin] | reduced the formation of tumor nodules in the lungs and decreased lung weight | metabolized much slower by human | no loss | metabolized more slowly by human liver S9 fraction | substantially greater than that of DOH | – | – | –
C/C=C(/C)C(=O)O[C@H]1Cc2cc3ccc(=O)oc3cc2OC1(C)C [DA, decursinol angelate] | – | metabolized much slower by human | no loss | metabolized more slowly by human liver S9 fraction | substantially greater than that of DOH | – | – | –
CC1(C)Oc2cc3oc(=O)ccc3cc2C[C@@H]1O [DOH, decursinol] | – | – | – | – | – | significantly inhibited | strong protective effect | little anti-proliferative effect
